Experimental data as given in patent publication US10383885B2, “Method for treating or preventing dry eyes” (priority 2015, dated 2019).

Key:
[1] = system: Human Corneal Epithelial (HCE) cells; assay: Benzalkonium chloride cell damage model in HCE cells (trypan blue cell count); format: cell-based; details: HCE cells damaged with 0.0005% benzalkonium chloride for 24 hours, then 0.4, 2, 10 μg/ml compound for 48 hours
Experimental: Benzalkonium Chloride Cell Damage Model
The Human Corneal Epithelial (HCE) cells were seeded on a 6-well plate 5×10^5 cells with 10% FCS in DMEM/F12 for 24 hours. After cell attachment, medium was removed and changed into 0.0005% Benzalkonium chloride for 24 hours, then washed with PBS and treat with different concentrations 0.4, 2, 10 μg/ml of compound of Formula (I) (compound A) for 48 hours. At the end the cells were trypsinized and centrifuge 1000 rpm for 5 minutes, the supernatant was removed, added 1 ml of DMEM/F12 medium to resuspend the cells, followed by 0.4% trypan blue and the cell culture medium were 1:3 dilution, the number of cells were calculate under a microscope to observe the survivability of different concentrations treatment. The results are shown in FIG. 1. *P<0.05, **P<0.01 compared to the 0 μg/ml compound A group, Student's t-test. Data are expressed as mean±SD (n=3).

BAC induced dry eye mice [2] = assay: Benzalkonium chloride induced dry eye mice model (1), phenol red thread tear test; format: in vivo, Male BALB/c mice; details: 0.3% BAC day 1 to 7; eye drops 2, 5 or 10 μg/ml three times a day, day 8 to 19; topical, right eye
Experimental: Benzalkonium Chloride Induced Dry Eye Mice Model (1)
(§1) Male BALB/c mice (6 weeks) was treated with thrice-daily (9:00, 13:30, 18:00) topical administration of 5 ul of 0.3% BAC in right eyes, mice was treated with PBS as control group, from day 1 to 7. And compound A (2, 5, 10 μg/ml) was treated with thrice-daily (9:00, 13:30, 18:00) topical administration of 5 ul in right eyes, and PBS as control group, from day 8 to 19.
(§2) Phenol red thread tear test was used. The thread is yellow (acidic) and when it comes in contact with tears it changes to a light red color. Forceps were used to insert folded portion of the thread into the palpebral conjunctiva of the eye ⅓ of the distance from the lateral canthus of the lower eye lid. After 15 s, the thread was removed and the entire wet (Red) portion was measured. The phenol red thread test was on 7, 11, 15, 19 day. The results are shown in FIG. 2. *P<0.05, **P<0.01 compared to the control, Student's t-test. Data are expressed as mean±SD (n=5-6).

NGF = assay: Tear NGF protein expression in BAC induced dry eye mice (western blot); format: in vivo; details: tear of BAC induced dry eye mice; eye drops 2, 5 or 10 μg/ml three times a day for 10 days
Experimental: Tear was collected from right eye of BAC induced dry eye mice by 10 μl PBS wash. Mice treated eyes drop of PBS as control and different concentration Compound A for 10 days. NGF protein was a positive control. 5 μl tear volume used in western blot.
The total protein concentration was determined by 1×Braford assay. To denature, use a loading buffer(7 ml 0.5M Tris pH6.8, 3 ml Glycerol, 1 g 10% SDS, 0.93 g DTT, […] 0.05% bromophenol blue, 10 ml), and boil the mixture at 95-100° C. for 5 minutes. Total protein was loaded 20-40 μg per mini-gel (12% SDS-polyacrylamide gel) well for electrophoresis. Then transfer the proteins into polyvinylidene difluoride membrane and blocking the membrane with 5-10% nonfat dried milk in TTBS. The membrane was incubated with the primary antibody overnight at 4° C. by shaking. Wash the membrane several times in TTBS to remove residual primary antibody. And the membrane was incubated with secondary antibody for 2 hours at room temperature.
The protein levels were determined by chemiluminescene detection system and analysis by Imagequant software. The results are shown in FIG. 4. *P<0.05, **P<0.01, ***P<0.001 compared to the control, Student's t-test. Data are expressed as mean±SD (n=4).

BAC induced dry eye mice [3] = assay: Benzalkonium chloride induced dry eye mice model (2), phenol red thread tear test; format: in vivo, Male BALB/c mice; details: 0.3% BAC day 1 to 7; eye drops 5, 10 μg/ml thrice-daily, day 15 to 19; topical, right eye
Experimental: Benzalkonium Chloride Induced Dry Eye Mice Model (2)
as §1, with “mice (9” for “mice (6”, “A (5,” for “A (2, 5,”, “day 15” for “day 8”
as §2, with “14, 18, 20” for “7, 11, 15, 19”, “3.” for “2.”

With `OC[C@H]1O[C@@H](Oc2c(O)cc(O)cc2/C=C/c2ccc(O)cc2)[C@H](O)[C@@H](O)[C@@H]1O` [compound of Formula (I), 2,3,5,4′-tetrahydroxystilbene 2-O-β-D-glucopyranoside] the “cell viability after BAC damage” value [1] was “increased cell viability”, the tear secretion (BAC induced dry eye mice [2]) was “restored tear secretion” and the NGF expression level (NGF) was “increased the NGF gene expression level”. The tear secretion (BAC induced dry eye mice [3]) was “improves tear secretion”.
